Patent US9914730B2, “Azaquinazoline inhibitors of Atypical protein Kinase C” (Ignyta, Inc., priority 2012, dated 2018)

Each compound was assayed against T1, full-length human PKCι (Homo sapiens, UniProt P41743) (assay: PKCι IC50 IMAP assay, full-length PKCι at 150 μM ATP). Conditions: read-out: IC50 in IMAP assay against full length PKCi at 150 μM ATP.
T1 construct: Recombinant, full-length human PKCι expressed in Sf21 insect cells is also commercially available; purchased; host or cells: Sf21 insect cells
T1 sequence (P41743 1-596): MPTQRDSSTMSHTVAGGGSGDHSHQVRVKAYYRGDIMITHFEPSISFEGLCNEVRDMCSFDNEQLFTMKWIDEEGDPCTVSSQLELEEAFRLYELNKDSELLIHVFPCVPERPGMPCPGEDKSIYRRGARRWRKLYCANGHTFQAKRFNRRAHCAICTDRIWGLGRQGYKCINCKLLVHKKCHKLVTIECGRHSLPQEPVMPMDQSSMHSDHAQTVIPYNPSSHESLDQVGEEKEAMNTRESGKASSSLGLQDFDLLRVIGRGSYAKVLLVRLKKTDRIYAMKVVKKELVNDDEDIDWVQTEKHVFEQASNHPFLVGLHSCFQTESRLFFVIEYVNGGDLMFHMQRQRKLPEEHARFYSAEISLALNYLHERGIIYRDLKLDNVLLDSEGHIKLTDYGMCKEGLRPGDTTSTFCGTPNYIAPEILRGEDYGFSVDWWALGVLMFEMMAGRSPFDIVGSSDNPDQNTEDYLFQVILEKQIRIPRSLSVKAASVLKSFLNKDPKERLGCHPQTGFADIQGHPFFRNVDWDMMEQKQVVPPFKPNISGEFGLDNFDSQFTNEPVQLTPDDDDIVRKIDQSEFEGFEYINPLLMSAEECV
Type: biochemical
Outline: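 Compounds in 4% final DMSO are mixed with Sf21-derived full-length human PKCι (typically 15 pM) and 100 nM FAM-labelled pseudosubstrate peptide, then started with 150 μM ATP. Reaction runs 60 min at room temperature, is quenched with IMAP development reagent for 2 h, and fluorescence polarisation is measured to derive IC50.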

SMILES	IC50 [nM]
COc1cncc2nc(-c3ccnc(Nc4ccccn4)c3)nc(N3CCNCC3)c12 [Example 387, [4-(5-Methoxy-4-piperazin-1-yl-pyrido[3,4-d]pyrimidin-2-yl)-pyridin-2-yl]-pyridin-2-yl-amine]	< 100
CC(=O)N[C@H](CNc1nc(-c2ccncc2)nc2cnccc12)Cc1ccccc1 [Example 79, N—[(S)-1-Benzyl-2-(2-pyridin-4-yl-pyrido[3,4-d]pyrimidin-4-ylamino)-ethyl]-acetamide]	10000 to 40000
FC(F)(F)C(Nc1cc(-c2nc(N3CCNCC3)c3c(C4CC4)cncc3n2)ccn1)c1ccccc1 (stereo not shown) [Example 706, [4-(5-Cyclopropyl-4-piperazin-1-yl-pyrido[3,4-d]pyrimidin-2-yl)-pyridin-2-yl]-(2,2,2-trifluoro-1-phenyl-ethyl)-amine]	100 to 1000
c1cc(-c2nc(N3CCNCC3)c3c(C4CC4)cncc3n2)c2cc(C3CC3)[nH]c2n1 [Example 1223, 5-Cyclopropyl-2-(2-cyclopropyl-1H-pyrrolo[2,3-b]pyridin-4-yl)-4-piperazin-1-yl-pyrido[3,4-d]pyrimidine]	< 100
OC1CCN(c2nc(-c3ccnc4[nH]c(C5(c6ccccc6)CC5)cc34)nc3cncc(C4CC4)c23)CC1 [Example 1244, 1-{5-Cyclopropyl-2-[2-(1-phenyl-cyclopropyl)-1H-pyrrolo[2,3-b]pyridin-4-yl]-pyrido[3,4-d]pyrimidin-4-yl}-piperidin-4-ol]	< 100
COc1cncc2nc(N3CCOCC3)nc(N3CCC[C@H](Nc4ccccc4)C3)c12 [Example 1007, [(S)-1-(5-Methoxy-2-morpholin-4-yl-pyrido[3,4-d]pyrimidin-4-yl)-piperidin-3-yl]-phenyl-amine]	1000 to 10000
Cc1cncc2nc(-c3ccncc3)nc(N3CCNCC3)c12 [Example 138, 1-[5-methyl-2-(pyridin-4-yl)pyrido[3,4-d]pyrimidin-4-yl]piperazine]	< 100
COc1cncc2nc(-c3ccnc(Nc4ccccc4)c3)nc(NC[C@@H]3CCCN3)c12 [Example 430, [5-Methoxy-2-(2-phenylamino-pyridin-4-yl)-pyrido[3,4-d]pyrimidin-4-yl]-(S)-1-pyrrolidin-2-ylmethyl-amine]	100 to 1000
COc1cncc2nc(-c3ccnc(Nc4ccc(C)cn4)c3)nc(N3CCNCC3)c12 [Example 364, [4-(5-Methoxy-4-piperazin-1-yl-pyrido[3,4-d]pyrimidin-2-yl)-pyridin-2-yl]-(5-methyl-pyridin-2-yl)-amine]	< 100
C=C(C)c1cncc2nc(-c3ccncc3)nc(N3CCNCC3)c12 [Example 143, 5-Isopropenyl-4-piperazin-1-yl-2-pyridin-4-yl-pyrido[3,4-d]pyrimidine]	< 100
CN1CCN(c2nc(-c3ccncc3)nc3cnccc23)CC1 [Example 18, 1-methyl-4-[2-(pyridin-4-yl)-pyrido[3,4-d]-pyrimidin-4-yl]-piperazine]	10000 to 40000
c1ccc(Nc2cc(-c3nc(N4CCNCC4)c4ccncc4n3)ccn2)cc1 [Example 494, Phenyl-[4-(4-piperazin-1-yl-pyrido[3,4-d]pyrimidin-2-yl)-pyridin-2-yl]-amine]	100 to 1000
Fc1cccc(F)c1Nc1cc(-c2nc(N3CCNCC3)c3c(Cl)cncc3n2)ccn1 [Example 254, [4-(5-Chloro-4-piperazin-1-yl-pyrido[3,4-d]pyrimidin-2-yl)-pyridin-2-yl]-(2,6-difluoro-phenyl)-amine]	< 100
O[C@H]1Cc2ccccc2[C@H]1Nc1cc(-c2nc(N3CCNCC3)c3c(C4CC4)cncc3n2)ccn1 [Example 2142, (1R,2S)-1-[4-(5-Cyclopropyl-4-piperazin-1-yl-pyrido[3,4-d]pyrimidin-2-yl)-pyridin-2-ylamino]-indan-2-ol]	100 to 1000
COc1cncc2nc(-c3ccnc(Nc4cccc(F)n4)c3)nc(N3CC[C@H](CO)C3)c12 [Example 470, ((S)-1-{2-[2-(6-Fluoro-pyridin-2-ylamino)-pyridin-4-yl]-5-methoxy-pyrido[3,4-d]pyrimidin-4-yl}-pyrrolidin-3-yl)-methanol]	1000 to 10000
N#Cc1ccnc(Nc2cc(-c3nc(N4CC[C@H](O)[C@H](O)C4)c4c(C5CC5)cncc4n3)ccn2)c1 (stereo in doubt) [Example 487, 2-{4-[5-Cyclopropyl-4-((3R,4S)-3,4-dihydroxy-piperidin-1-yl)-pyrido[3,4-d]pyrimidin-2-yl]-pyridin-2-ylamino}-isonicotinonitrile]	< 100

SMILES	IC50 [nM]
COc1cc(N2CCOCC2)ccc1Nc1cc(-c2nc(N[C@@H]3CCNC3)c3c(OC)cncc3n2)ccn1 [Example 360, {5-Methoxy-2-[2-(2-methoxy-4-morpholin-4-yl-phenylamino)-pyridin-4-yl]-pyrido[3,4-d]pyrimidin-4-yl}-(R)-pyrrolidin-3-yl-amine]	100 to 1000
COc1cncc2nc(-c3ccnc(Nc4cccc(F)n4)c3)nc(N3CCC(O)CC3)c12 [Example 468, 1-{2-[2-(6-Fluoro-pyridin-2-ylamino)-pyridin-4-yl]-5-methoxy-pyrido[3,4-d]pyrimidin-4-yl}-piperidin-4-ol]	100 to 1000
COc1cncc2nc(-c3ccnc(Nc4cccc(C(F)(F)F)n4)c3)nc(N3CCNCC3)c12 [Example 449, [4-(5-Methoxy-4-piperazin-1-yl-pyrido[3,4-d]pyrimidin-2-yl)-pyridin-2-yl]-(6-trifluoromethyl-pyridin-2-yl)-amine]	< 100
COc1cncc2nc(-c3ccnc(Nc4ccc(N5CCOCC5)nc4)c3)nc(N3CCNCC3)c12 [Example 375, [4-(5-Methoxy-4-piperazin-1-yl-pyrido[3,4-d]pyrimidin-2-yl)-pyridin-2-yl]-(6-morpholin-4-yl-pyridin-3-yl)-amine]	< 100
CC(C)n1ccc(Nc2cc(-c3nc(N4CCNCC4)c4c(C5CC5)cncc4n3)ccn2)n1 [Example 779, [4-(5-Cyclopropyl-4-piperazin-1-yl-pyrido[3,4-d]pyrimidin-2-yl)-pyridin-2-yl]-(1-isopropyl-1H-pyrazol-3-yl)-amine]	< 100
Clc1cccc(Nc2cc(-c3nc(N4CCNCC4)c4c(C5CC5)cncc4n3)ccn2)c1Cl [Example 542, [4-(5-Cyclopropyl-4-piperazin-1-yl-pyrido[3,4-d]pyrimidin-2-yl)-pyridin-2-yl]-(2,3-dichloro-phenyl)-amine]	100 to 1000
Cc1ccc(C#N)cc1Nc1cc(-c2nc(N3CCNCC3)c3c(C4CC4)cncc3n2)ccn1 [Example 524, 3-[4-(5-Cyclopropyl-4-piperazin-1-yl-pyrido[3,4-d]pyrimidin-2-yl)-pyridin-2-ylamino]-4-methyl-benzonitrile]	< 100
Fc1ccc(Nc2cc(-c3nc(N4CCNCC4)c4c(C5CC5)cncc4n3)ccn2)c(F)c1 [Example 651, [4-(5-Cyclopropyl-4-piperazin-1-yl-pyrido[3,4-d]pyrimidin-2-yl)-pyridin-2-yl]-(2,4-difluoro-phenyl)-amine]	< 100
CNc1ccc(Nc2nc(-c3ccnc(Nc4ncc(F)cc4F)c3)nc3cncc(C4CC4)c23)cc1 [Example 2206, N-{5-Cyclopropyl-2-[2-(3,5-difluoro-pyridin-2-ylamino)-pyridin-4-yl]-pyrido[3,4-d]pyrimidin-4-yl}-N′-methyl-benzene-1,4-diamine]	10000 to 40000
Fc1ccc(Nc2cc(-c3nc(N4CCNCC4)c4c(C5CC5)cncc4n3)ccn2)nc1 [Example 271, [4-(5-Cyclopropyl-4-piperazin-1-yl-pyrido[3,4-d]pyrimidin-2-yl)-pyridin-2-yl]-(5-fluoro-pyridin-2-yl)-amine]	< 100
c1cc(-c2nc(N3CCNCC3)c3c(C4CC4)cncc3n2)c2cc(C3CCC3)[nH]c2n1 [Example 2146, 2-(2-Cyclobutyl-1H-pyrrolo[2,3-b]pyridin-4-yl)-5-cyclopropyl-4-piperazin-1-yl-pyrido[3,4-d]pyrimidine]	< 100
COc1cncc2nc(-c3ccncc3)nc(N3CCOC(Cc4ccccc4)C3)c12 (stereo not shown) [Example 72, 2-benzyl-4-[5-methoxy-2-(pyridin-4-yl)pyrido[3,4-d]-pyrimidin-4-yl]-morpholine]	1000 to 10000
COc1cncc2nc(-c3ccnc(Nc4cccc(C)c4F)c3)nc(N3CCNCC3)c12 [Example 451, (2-Fluoro-3-methyl-phenyl)-[4-(5-methoxy-4-piperazin-1-yl-pyrido[3,4-d]pyrimidin-2-yl)-pyridin-2-yl]-amine]	< 100
CC(C)c1ccc(Nc2cc(-c3nc(N4CCNCC4)c4c(C5CC5)cncc4n3)ccn2)c(F)c1 [Example 714, [4-(5-Cyclopropyl-4-piperazin-1-yl-pyrido[3,4-d]pyrimidin-2-yl)-pyridin-2-yl]-(2-fluoro-4-isopropyl-phenyl)-amine]	< 100
c1ccc(C2(c3cc4c(-c5nc(N6CCNCC6)c6c(C7CCC7)cncc6n5)ccnc4[nH]3)CC2)cc1 [Example 2113, 5-Cyclobutyl-2-[2-(1-phenyl-cyclopropyl)-1H-pyrrolo[2,3-b]pyridin-4-yl]-4-piperazin-1-yl-pyrido[3,4-d]pyrimidine]	< 100
